This note sets out measurements from patent publication US5446055A, “Polyether naphthalenic lignan lactones as inhibitors of 5-lipoxygenase” (Abbott Laboratories, priority 1994, dated 1995).

In the assay the test system is LTB4 biosynthesis in human whole blood. Briefly: calcium ionophore-induced LTB4 biosynthesis in human whole blood. In kind it is cell-based. The settings on record: at 13 nM; human heparinized whole blood, calcium ionophore A23187 challenge, LTB4 by radioimmunoassay; read-out: Inhibition of leukotriene biosynthesis. As for the experimental part:
Inhibition of leukotriene biosynthesis was evaluated in an assay, involving calcium ionophore-induced LTB4 biosynthesis expressed human whole blood. Human heparinized whole blood was preincubated with test compounds or vehicle for 15 min at 37° C. followed by calcium ionophore A23 187 challenge (final concentration of 8.3/μM) and the reaction terminated after 30 min by adding two volumes of methanol containing prostaglandin B2 as an internal recovery standard. The methanol extract was analyzed for LTB4 using a commercially available radioimmunoassay.

For the compound `CON=C(c1cccc(COc2ccc3c(-c4ccc(F)cc4)c4c(cc3c2)C(=O)OC4)c1)[C@H]1COC(C)(C)O1` [Example 1, O-methylE- and Z-(4"S)-7-[(3'-((2",2"-dimethyl-1",3"-dioxolan-4"-yl)oximinomethyl)phenyl)oxymethylene]-4-(4-fluorophenyl)naptho[2,3-c]furan-1(3H)-one], the inhibition at 0.013 µM was 52%.
